Consider 25 molecules from the Kinase Knowledgebase extract (Sharma et al. 2016).

The structures appear in SMILES notation. A value given as a limit tells only on which side of the number the result lay.

As a reminder, the IC50 is the concentration needed to halve the response being measured. Low values mean greater potency in that assay, high ones weaker potency in that assay.

The target in one experiment is PIK3CB (Human) (UniProt P42338). The experiment can be described thus: Assessment of PIK3CB Kinase Activity.
Sequence of PIK3CB (Human) (P42338 whole entry, looked up): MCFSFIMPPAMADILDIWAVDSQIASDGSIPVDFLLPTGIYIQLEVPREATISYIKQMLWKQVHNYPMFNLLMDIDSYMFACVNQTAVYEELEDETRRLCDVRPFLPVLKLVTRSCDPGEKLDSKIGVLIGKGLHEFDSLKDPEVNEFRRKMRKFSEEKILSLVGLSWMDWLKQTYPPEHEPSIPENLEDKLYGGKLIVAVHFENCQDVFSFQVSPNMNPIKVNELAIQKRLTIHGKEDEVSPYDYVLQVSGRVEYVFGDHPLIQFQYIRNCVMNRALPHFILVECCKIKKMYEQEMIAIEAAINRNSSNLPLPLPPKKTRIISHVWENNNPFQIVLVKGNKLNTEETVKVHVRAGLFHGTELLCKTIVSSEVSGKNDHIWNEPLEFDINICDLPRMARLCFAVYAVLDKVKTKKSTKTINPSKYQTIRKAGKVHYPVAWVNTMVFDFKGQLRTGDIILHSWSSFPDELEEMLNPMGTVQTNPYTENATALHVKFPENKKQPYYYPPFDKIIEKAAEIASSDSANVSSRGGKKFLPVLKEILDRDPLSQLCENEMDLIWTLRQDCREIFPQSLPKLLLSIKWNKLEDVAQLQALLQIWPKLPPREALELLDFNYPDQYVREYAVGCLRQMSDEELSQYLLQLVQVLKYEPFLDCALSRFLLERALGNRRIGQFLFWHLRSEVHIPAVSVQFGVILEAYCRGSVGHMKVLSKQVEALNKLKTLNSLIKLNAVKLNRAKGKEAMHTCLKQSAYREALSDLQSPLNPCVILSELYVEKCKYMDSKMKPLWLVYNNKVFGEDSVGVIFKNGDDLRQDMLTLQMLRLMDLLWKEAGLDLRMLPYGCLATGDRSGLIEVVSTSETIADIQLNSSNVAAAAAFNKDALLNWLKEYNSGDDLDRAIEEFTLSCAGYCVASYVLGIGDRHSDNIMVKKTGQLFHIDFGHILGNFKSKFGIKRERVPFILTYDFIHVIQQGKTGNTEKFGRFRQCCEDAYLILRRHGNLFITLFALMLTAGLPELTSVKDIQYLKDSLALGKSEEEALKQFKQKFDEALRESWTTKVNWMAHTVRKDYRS
The next experiment deals with PIK3CA (human) (UniProt P42336). The experiment can be described thus: Assessment of PIK3CA Kinase Activity.
Sequence of PIK3CA (human) (P42336 whole entry, looked up): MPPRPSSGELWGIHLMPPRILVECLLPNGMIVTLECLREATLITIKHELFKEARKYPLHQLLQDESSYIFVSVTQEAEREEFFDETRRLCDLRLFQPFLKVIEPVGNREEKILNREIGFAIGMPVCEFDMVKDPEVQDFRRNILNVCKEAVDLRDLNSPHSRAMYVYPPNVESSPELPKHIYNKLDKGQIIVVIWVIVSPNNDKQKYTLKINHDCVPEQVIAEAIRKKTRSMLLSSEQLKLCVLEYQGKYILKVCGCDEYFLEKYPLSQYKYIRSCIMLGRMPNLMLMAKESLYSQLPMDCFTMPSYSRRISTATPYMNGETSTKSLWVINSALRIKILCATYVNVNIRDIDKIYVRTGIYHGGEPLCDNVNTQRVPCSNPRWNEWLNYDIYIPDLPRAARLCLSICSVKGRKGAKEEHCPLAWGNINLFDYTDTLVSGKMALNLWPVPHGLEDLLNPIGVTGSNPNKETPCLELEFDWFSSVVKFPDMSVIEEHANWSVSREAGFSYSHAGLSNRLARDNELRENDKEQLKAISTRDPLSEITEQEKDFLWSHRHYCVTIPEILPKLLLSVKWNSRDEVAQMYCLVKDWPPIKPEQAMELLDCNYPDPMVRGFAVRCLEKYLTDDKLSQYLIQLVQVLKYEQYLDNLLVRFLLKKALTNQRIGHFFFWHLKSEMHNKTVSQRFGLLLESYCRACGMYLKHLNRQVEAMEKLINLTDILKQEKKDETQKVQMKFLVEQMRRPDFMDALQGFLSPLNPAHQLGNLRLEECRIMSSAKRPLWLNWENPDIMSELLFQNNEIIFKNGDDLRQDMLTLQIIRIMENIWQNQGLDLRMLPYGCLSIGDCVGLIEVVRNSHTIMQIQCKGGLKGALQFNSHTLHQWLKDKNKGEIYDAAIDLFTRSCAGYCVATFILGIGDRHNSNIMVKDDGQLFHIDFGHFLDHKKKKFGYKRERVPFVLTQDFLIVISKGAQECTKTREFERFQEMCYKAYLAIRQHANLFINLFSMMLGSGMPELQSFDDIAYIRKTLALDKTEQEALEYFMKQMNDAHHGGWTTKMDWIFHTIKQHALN
In a further experiment the target is PIK3CG (human) (UniProt P48736). The experiment can be described thus: Assessment of PIK3CG Kinase Activity.
Sequence of PIK3CG (human) (P48736 whole entry, looked up): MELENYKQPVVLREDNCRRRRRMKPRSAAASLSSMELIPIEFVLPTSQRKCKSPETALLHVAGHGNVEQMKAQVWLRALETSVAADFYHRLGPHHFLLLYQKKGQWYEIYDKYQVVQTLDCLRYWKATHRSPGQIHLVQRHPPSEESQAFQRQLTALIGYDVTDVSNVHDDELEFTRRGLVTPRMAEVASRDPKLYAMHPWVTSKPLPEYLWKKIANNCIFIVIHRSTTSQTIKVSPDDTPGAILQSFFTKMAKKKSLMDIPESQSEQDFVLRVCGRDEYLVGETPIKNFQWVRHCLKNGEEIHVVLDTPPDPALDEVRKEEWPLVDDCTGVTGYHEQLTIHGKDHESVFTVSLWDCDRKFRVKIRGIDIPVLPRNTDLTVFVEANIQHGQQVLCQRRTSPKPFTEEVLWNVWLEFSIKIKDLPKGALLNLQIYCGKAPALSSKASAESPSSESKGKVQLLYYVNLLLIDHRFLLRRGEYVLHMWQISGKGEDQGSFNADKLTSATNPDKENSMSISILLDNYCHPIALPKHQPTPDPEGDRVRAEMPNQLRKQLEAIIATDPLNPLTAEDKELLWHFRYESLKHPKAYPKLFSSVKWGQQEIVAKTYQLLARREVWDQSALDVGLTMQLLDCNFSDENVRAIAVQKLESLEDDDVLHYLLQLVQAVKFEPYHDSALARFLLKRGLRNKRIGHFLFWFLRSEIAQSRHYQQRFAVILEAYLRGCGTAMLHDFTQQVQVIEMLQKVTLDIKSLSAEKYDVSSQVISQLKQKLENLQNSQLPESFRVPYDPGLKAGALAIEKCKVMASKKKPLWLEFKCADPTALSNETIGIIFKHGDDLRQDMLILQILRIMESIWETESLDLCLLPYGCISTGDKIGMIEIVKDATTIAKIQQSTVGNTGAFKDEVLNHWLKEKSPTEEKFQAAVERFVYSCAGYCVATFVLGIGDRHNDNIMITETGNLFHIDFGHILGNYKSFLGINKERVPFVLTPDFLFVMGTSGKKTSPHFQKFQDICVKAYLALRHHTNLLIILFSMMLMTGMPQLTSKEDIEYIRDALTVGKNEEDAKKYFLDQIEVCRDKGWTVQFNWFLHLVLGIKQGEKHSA
The target in the next experiment is PIK3CD (Human) (UniProt O00329). The experiment can be described thus: Assessment of PIK3CD Kinase Activity.
Sequence of PIK3CD (Human) (O00329 whole entry, looked up): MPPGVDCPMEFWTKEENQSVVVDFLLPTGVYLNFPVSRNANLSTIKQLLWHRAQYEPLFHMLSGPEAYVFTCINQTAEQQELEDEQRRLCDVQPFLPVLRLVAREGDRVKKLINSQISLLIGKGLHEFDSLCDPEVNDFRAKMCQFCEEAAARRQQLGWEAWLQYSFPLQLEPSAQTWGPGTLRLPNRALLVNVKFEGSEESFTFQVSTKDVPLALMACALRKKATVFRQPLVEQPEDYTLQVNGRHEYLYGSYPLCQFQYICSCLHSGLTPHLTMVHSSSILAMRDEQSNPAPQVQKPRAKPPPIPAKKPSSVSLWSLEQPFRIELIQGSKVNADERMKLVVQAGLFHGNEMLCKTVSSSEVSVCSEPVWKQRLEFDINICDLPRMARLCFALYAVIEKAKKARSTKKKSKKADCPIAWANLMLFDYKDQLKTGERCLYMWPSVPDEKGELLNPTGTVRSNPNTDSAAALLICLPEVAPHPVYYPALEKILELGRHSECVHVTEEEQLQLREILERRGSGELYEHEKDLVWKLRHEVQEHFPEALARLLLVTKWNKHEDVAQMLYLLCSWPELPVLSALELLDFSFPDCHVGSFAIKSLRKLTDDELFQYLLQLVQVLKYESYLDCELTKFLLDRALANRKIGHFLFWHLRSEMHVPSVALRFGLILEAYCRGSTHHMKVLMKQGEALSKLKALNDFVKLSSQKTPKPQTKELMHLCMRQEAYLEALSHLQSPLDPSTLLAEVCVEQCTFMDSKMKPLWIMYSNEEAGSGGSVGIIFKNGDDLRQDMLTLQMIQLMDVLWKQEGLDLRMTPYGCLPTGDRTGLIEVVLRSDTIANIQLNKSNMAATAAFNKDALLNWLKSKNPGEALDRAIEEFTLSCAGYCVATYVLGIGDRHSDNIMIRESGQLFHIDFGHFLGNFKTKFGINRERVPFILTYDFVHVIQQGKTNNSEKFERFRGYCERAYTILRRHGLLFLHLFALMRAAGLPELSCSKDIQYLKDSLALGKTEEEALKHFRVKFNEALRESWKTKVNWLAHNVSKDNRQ

As to `O=C(NO)c1cnc(N2CCN(Cc3cc4nc(-c5cccc6[nH]ncc56)nc(N5CCOCC5)c4s3)CC2)nc1`, the IC50 is under 100 nM against PIK3CB (Human), under 100 nM on PIK3CA (human), under 100 nM on PIK3CG (human) and 100 to 1000 nM at PIK3CD (Human).
As to `CN(Cc1cc2nc(-c3cccc4[nH]ncc34)nc(N3CCOCC3)c2s1)c1ncc(C(=O)NO)cn1`, the IC50 at PIK3CB (Human), against PIK3CA (human), against PIK3CG (human) and against PIK3CD (Human) was under 100 nM each time.
As to `O=C(NO)c1cnc(NCc2cc3nc(-c4cccc5[nH]ncc45)nc(N4CCOCC4)c3s2)nc1`, the IC50 against PIK3CB (Human), against PIK3CA (human), at PIK3CG (human) and against PIK3CD (Human) was under 100 nM in each case.
`CN(CCCC(=O)NO)Cc1cc2nc(-c3cccc4[nH]ncc34)nc(N3CCOCC3)c2s1` yielded an IC50 against PIK3CA (human) of 100 to 1000 nM.
In turn, `O=C(/C=C/c1ccc(NCc2cc3nc(-c4cccc5[nH]ncc45)nc(N4CCOCC4)c3s2)cc1)NO` gave an IC50 on PIK3CA (human) of under 100 nM.
On the same count and under the same terms, in the case of `CC(C)(C)CN(Cc1cc2nc(-c3cccc4[nH]ncc34)nc(N3CCOCC3)c2s1)c1ncc(C(=O)NO)cn1` it was 100 to 1000 nM; in that of `COC(=O)CN(Cc1cc2nc(-c3cccc4[nH]ncc34)nc(N3CCOCC3)c2s1)c1ncc(C(=O)NO)cn1`, under 100 nM; in that of `CCCCN(Cc1cc2nc(-c3cccc4[nH]ncc34)nc(N3CCOCC3)c2s1)c1ncc(C(=O)NO)cn1`, 100 to 1000 nM.
On PIK3CA (human), `Cc1nc(N)ncc1-c1nc(N2CCOCC2)c2sc(CN(C)c3ncc(C(=O)NO)cn3)cc2n1` had an IC50 of under 100 nM.
`COc1ccccc1Nc1nc(-c2cccc3[nH]ncc23)nc2cc(CN(C)c3ncc(C(=O)NO)cn3)sc12` came in with an IC50 on PIK3CA (human) of 100 to 1000 nM.
For `CN(Cc1cc2nc(-c3ccc4[nH]cnc4c3)nc(N3CCOCC3)c2s1)c1ncc(C(=O)NO)cn1`, the IC50 on PIK3CA (human) is under 100 nM.
On PIK3CA (human), `COCCN(Cc1cc2nc(-c3cccc4[nH]ncc34)nc(N3CCOCC3)c2s1)c1ncc(C(=O)NO)cn1` came in with an IC50 of under 100 nM.
At PIK3CA (human), `CN(Cc1cc2nc(-c3cccc(O)c3)nc(N3CCOCC3)c2s1)c1ncc(C(=O)NO)cn1` yielded an IC50 of under 100 nM.
On PIK3CA (human), `CC(c1cc2nc(-c3cccc4[nH]ncc34)nc(N3CCOCC3)c2s1)N(C)c1ncc(C(=O)NO)cn1` (stereo not given) showed an IC50 of under 100 nM.
For the molecule `O=C(C=Cc1ccc(S(=O)(=O)Nc2cc3nc(-c4cccc5[nH]ncc45)nc(N4CCOCC4)c3s2)cc1)NO`, the IC50 against PIK3CA (human) was under 100 nM.
The same measure, in the same setting: in the case of `O=C(CCCCCNc1cc2nc(-c3cccc4[nH]ncc34)nc(N3CCOCC3)c2s1)NO` it was 100 to 1000 nM; in that of `CN(Cc1cc2nc(-c3cccc4[nH]ncc34)nc(N3CCCCC3)c2s1)c1ncc(C(=O)NO)cn1`, 100 to 1000 nM.
`O=C(NO)c1cc2nc(-c3cccc4[nH]ncc34)nc(N3CCOCC3)c2s1` came in with an IC50 at PIK3CA (human) of under 100 nM.
As to `CN(Cc1cc2nc(-c3cccc4[nH]ncc34)nc(N3CCOCC3)c2s1)c1ncc(C=CC(=O)NO)cn1`, at PIK3CA (human), the IC50 was under 100 nM.
`CN(Cc1cc2nc(-c3ccc(C(F)(F)F)cc3)nc(N3CCOCC3)c2s1)c1ncc(C(=O)NO)cn1` had an IC50 against PIK3CA (human) of 100 to 1000 nM.
`CN(Cc1cc2nc(-c3ccc(CO)cc3)nc(N3CCOCC3)c2s1)c1ncc(C(=O)NO)cn1`: the IC50 at PIK3CA (human) fell in the range of 100 to 1000 nM.
As to `NCCN(Cc1cc2nc(-c3cccc4[nH]ncc34)nc(N3CCOCC3)c2s1)c1ncc(C(=O)NO)cn1`, the IC50 at PIK3CA (human) was under 100 nM.
Regarding `CN(Cc1cc2nc(-c3ccc4[nH]ccc4c3)nc(N3CCOCC3)c2s1)c1ncc(C(=O)NO)cn1`, at PIK3CA (human), the IC50 was in the range of 100 to 1000 nM.
Molecule `CN(Cc1cc2nc(-c3ccc(N)cc3)nc(N3CCOCC3)c2s1)c1ccc(C(=O)NO)cc1` registered an IC50 on PIK3CA (human) of 100 to 1000 nM.
`O=C(NO)c1cnc(N(CCO)Cc2cc3nc(-c4cccc5[nH]ncc45)nc(N4CCOCC4)c3s2)nc1`: the IC50 at PIK3CB (Human) and on PIK3CA (human) was under 100 nM throughout.
